Test results as given in ChEMBL document CHEMBL3352542, “Synthesis, biological evaluation and molecular modeling study of 2-(1,3,4-thiadiazolyl-thio and 4-methyl-thiazolyl-thio)-quinazolin-4-ones as a new class of DHFR inhibitors” (Bioorg Med Chem Lett, 2014).
Calls of active or inactive are those of the source. No cut-off for these calls is given here.

Legend:
T47D = assay: Growth inhibition of human T47D cells at 10 uM after 48 hrs; assay type: functional
SN12C = assay: Growth inhibition of human SN12C cells at 10 uM after 48 hrs; assay type: functional
HL-60(TB) = assay: Growth inhibition of human HL-60(TB) cells at 10 uM after 48 hrs; assay type: functional
OVCAR-3 = assay: Growth inhibition of human OVCAR3 cells at 10 uM after 48 hrs; assay type: functional
U-251 = assay: Growth inhibition of human U251 cells at 10 uM after 48 hrs; assay type: functional
NCI-H460 = assay: Growth inhibition of human NCI-H460 cells at 10 uM after 48 hrs; assay type: functional
MDA-MB-435 = assay: Growth inhibition of human MDA-MB-435 cells at 10 uM after 48 hrs; assay type: functional
LOX IMVI = assay: Growth inhibition of human LOXIMVI cells at 10 uM after 48 hrs; assay type: functional
BT-549 = assay: Growth inhibition of human BT549 cells at 10 uM after 48 hrs; assay type: functional
CAKI-1 = assay: Growth inhibition of human CAKI-1 cells at 10 uM after 48 hrs; assay type: functional
SK-MEL-5 = assay: Growth inhibition of human SK-MEL-5 cells at 10 uM after 48 hrs; assay type: functional
SR = assay: Growth inhibition of human SR cells at 10 uM after 48 hrs; assay type: functional
SF-539 = assay: Growth inhibition of human SF539 cells at 10 uM after 48 hrs; assay type: functional
M14 = assay: Growth inhibition of human M14 cells at 10 uM after 48 hrs; assay type: functional
RXF 393 = assay: Growth inhibition of human RXF393 cells at 10 uM after 48 hrs; assay type: functional
MCF7 = assay: Growth inhibition of human MCF7 cells at 10 uM after 48 hrs; assay type: functional
UO-31 = assay: Growth inhibition of human UO31 cells at 10 uM after 48 hrs; assay type: functional
KM12 = assay: Growth inhibition of human KM12 cells at 10 uM after 48 hrs; assay type: functional
HT-29 = assay: Growth inhibition of human HT-29 cells at 10 uM after 48 hrs; assay type: functional
CCRF-CEM = assay: Growth inhibition of human CCRF-CEM cells at 10 uM after 48 hrs; assay type: functional
RPMI-8226 = assay: Growth inhibition of human RPMI8226 cells at 10 uM after 48 hrs; assay type: functional
PC-3 = assay: Growth inhibition of human PC3 cells at 10 uM after 48 hrs; assay type: functional
Candida albicans = assay: Antimicrobial activity against Candida albicans assessed as inhibition zone at 200 ug/disk after 24 hrs by disc-diffusion method; assay type: functional; settings: read-out: IZ
NCI-H522 = assay: Growth inhibition of human NCI-H522 cells at 10 uM after 48 hrs; assay type: functional
NCI-H23 = assay: Growth inhibition of human NCI-H23 cells at 10 uM after 48 hrs; assay type: functional
SF-295 = assay: Growth inhibition of human SF295 cells at 10 uM after 48 hrs; assay type: functional
MOLT-4 = assay: Growth inhibition of human MOLT4 cells at 10 uM after 48 hrs; assay type: functional
ACHN = assay: Growth inhibition of human ACHN cells at 10 uM after 48 hrs; assay type: functional
Dihydrofolate reductase = molecular target: T1, Dihydrofolate reductase (Bos taurus, UniProt P00376); assay: Inhibition of bovine liver DHFR
T1 sequence (P00376 whole entry): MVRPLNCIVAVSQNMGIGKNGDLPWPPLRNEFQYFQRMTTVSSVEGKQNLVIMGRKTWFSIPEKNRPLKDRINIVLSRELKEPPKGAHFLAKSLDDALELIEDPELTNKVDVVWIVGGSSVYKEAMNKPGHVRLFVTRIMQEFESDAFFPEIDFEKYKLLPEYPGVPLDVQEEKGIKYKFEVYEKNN

A549 = assay: Growth inhibition of human A549 cells at 10 uM after 48 hrs; assay type: functional
HOP-92 = assay: Growth inhibition of human HOP92 cells at 10 uM after 48 hrs; assay type: functional
UACC-257 = assay: Growth inhibition of human UACC257 cells at 10 uM after 48 hrs; assay type: functional
K562 = assay: Growth inhibition of human K562 cells at 10 uM after 48 hrs; assay type: functional
SW-620 = assay: Growth inhibition of human SW620 cells at 10 uM after 48 hrs; assay type: functional
HCT-15 = assay: Growth inhibition of human HCT15 cells at 10 uM after 48 hrs; assay type: functional
Staphylococcus aureus [1] = assay: Antimicrobial activity against Staphylococcus aureus assessed as inhibition zone at 200 ug/disk after 24 hrs by disc-diffusion method; assay type: functional; settings: read-out: IZ
Hs-578T = assay: Growth inhibition of human Hs 578T cells at 10 uM after 48 hrs; assay type: functional
OVCAR-8 = assay: Growth inhibition of human OVCAR8 cells at 10 uM after 48 hrs; assay type: functional
MDA-MB-231 = assay: Growth inhibition of human MDA-MB-231 cells at 10 uM after 48 hrs; assay type: functional
Escherichia coli = assay: Antimicrobial activity against Escherichia coli assessed as inhibition zone at 200 ug/disk after 24 hrs by disc-diffusion method; assay type: functional; settings: read-out: IZ
Bacillus subtilis [2] = assay: Antimicrobial activity against Bacillus subtilis assessed as inhibition zone at 200 ug/disk after 24 hrs by disc-diffusion method; assay type: functional; settings: read-out: IZ
MDA-MB-468 = assay: Growth inhibition of human MDA-MB-468 cells at 10 uM after 48 hrs; assay type: functional
A498 = assay: Growth inhibition of human A498 cells at 10 uM after 48 hrs; assay type: functional
Malme-3M = assay: Growth inhibition of human MALME-3M cells at 10 uM after 48 hrs; assay type: functional
786-0 = assay: Growth inhibition of human 786-0 cells at 10 uM after 48 hrs; assay type: functional
HCC 2998 = assay: Growth inhibition of human HCC2998 cells at 10 uM after 48 hrs; assay type: functional
HCT-116 = assay: Growth inhibition of human HCT116 cells at 10 uM after 48 hrs; assay type: functional
Bacillus subtilis [3] = assay: Antimicrobial activity against Bacillus subtilis assessed as inhibition of visible growth after 24 hrs by disc-diffusion method; assay type: functional, organism-based
SNB-75 = assay: Growth inhibition of human SNB75 cells at 10 uM after 48 hrs; assay type: functional
COLO 205 = assay: Growth inhibition of human COLO205 cells at 10 uM after 48 hrs; assay type: functional
Pseudomonas aeruginosa = assay: Antimicrobial activity against Pseudomonas aeruginosa assessed as inhibition zone at 200 ug/disk after 24 hrs by disc-diffusion method; assay type: functional; settings: read-out: IZ
SF-268 = assay: Growth inhibition of human SF268 cells at 10 uM after 48 hrs; assay type: functional
NCI-H226 = assay: Growth inhibition of human NCI-H226 cells at 10 uM after 48 hrs; assay type: functional
UACC-62 = assay: Growth inhibition of human UACC62 cells at 10 uM after 48 hrs; assay type: functional
Staphylococcus aureus [4] = assay: Antimicrobial activity against Staphylococcus aureus assessed as inhibition of visible growth after 24 hrs by disc-diffusion method; assay type: functional, organism-based
TK-10 = assay: Growth inhibition of human TK10 cells at 10 uM after 48 hrs; assay type: functional
OVCAR-5 = assay: Growth inhibition of human OVCAR5 cells at 10 uM after 48 hrs; assay type: functional
OVCAR-4 = assay: Growth inhibition of human OVCAR4 cells at 10 uM after 48 hrs; assay type: functional
NCI/ADR-RES = assay: Growth inhibition of human NCI-ADR-RES cells at 10 uM after 48 hrs; assay type: functional
SNB-19 = assay: Growth inhibition of human SNB19 cells at 10 uM after 48 hrs; assay type: functional

Cc1ccc2nc(Sc3sc(N)nc3C)n(-c3ccc(Oc4ccccc4)cc3)c(=O)c2c1
growth inhibition (GI) (T47D): inactive | growth inhibition (GI) (SN12C): inactive | growth inhibition (GI) (HL-60(TB)): inactive | growth inhibition (GI) (OVCAR-3): inactive | growth inhibition (GI) (U-251): inactive | growth inhibition (GI) (NCI-H460): inactive | growth inhibition (GI) (MDA-MB-435): inactive | growth inhibition (GI) (LOX IMVI): inactive | growth inhibition (GI) (BT-549): inactive | growth inhibition (GI) (CAKI-1): inactive | growth inhibition (GI) (SK-MEL-5): inactive | growth inhibition (GI) (SR): inactive | growth inhibition (GI) (SF-539): inactive | growth inhibition (GI) (M14): inactive | growth inhibition (GI) (RXF 393): inactive | growth inhibition (GI) (MCF7): inactive | growth inhibition (GI) (UO-31): inactive | growth inhibition (GI) (KM12): inactive | growth inhibition (GI) (HT-29): inactive | growth inhibition (GI) (CCRF-CEM): inactive | growth inhibition (GI) (RPMI-8226): inactive | growth inhibition (GI) (PC-3): inactive | zone of inhibition at 200 µg/disc (Candida albicans): 8 mm | growth inhibition (GI) (NCI-H522): inactive | growth inhibition (GI) (NCI-H23): inactive | growth inhibition (GI) (SF-295): inactive | growth inhibition (GI) (MOLT-4): inactive | growth inhibition (GI) (ACHN): inactive | IC50 (Dihydrofolate reductase): 2000 nM | growth inhibition (GI) (A549): inactive | growth inhibition (GI) (HOP-92): inactive | growth inhibition (GI) (UACC-257): inactive | growth inhibition (GI) (K562): inactive | growth inhibition (GI) (SW-620): inactive | growth inhibition (GI) (HCT-15): inactive | zone of inhibition at 200 µg/disc (Staphylococcus aureus [1]): 26 mm | growth inhibition (GI) (Hs-578T): inactive | growth inhibition (GI) (OVCAR-8): inactive | growth inhibition (GI) (MDA-MB-231): inactive | zone of inhibition at 200 µg/disc (Escherichia coli): 14 mm | zone of inhibition at 200 µg/disc (Bacillus subtilis [2]): 22 mm | growth inhibition (GI) (MDA-MB-468): inactive | growth inhibition (GI) (A498): inactive | growth inhibition (GI) (Malme-3M): inactive | growth inhibition (GI) (786-0): inactive | growth inhibition (GI) (HCC 2998): inactive | growth inhibition (GI) (HCT-116): inactive | Activity (Bacillus subtilis [3]): Active | growth inhibition (GI) (SNB-75): inactive | growth inhibition (GI) (COLO 205): inactive | zone of inhibition at 200 µg/disc (Pseudomonas aeruginosa): 8 mm | growth inhibition (GI) (SF-268): inactive | growth inhibition (GI) (NCI-H226): inactive | growth inhibition (GI) (UACC-62): inactive | Activity (Staphylococcus aureus [4]): Active | growth inhibition (GI) (TK-10): inactive | growth inhibition (GI) (OVCAR-5): inactive | growth inhibition (GI) (OVCAR-4): inactive | growth inhibition (GI) (NCI/ADR-RES): inactive | growth inhibition (GI) (SNB-19): inactive

COc1ccc(-n2c(Sc3sc(N)nc3C)nc3cc(OC)c(OC)cc3c2=O)cc1
growth inhibition (GI) (T47D): inactive | growth inhibition (GI) (SN12C): inactive | growth inhibition (GI) (HL-60(TB)): inactive | growth inhibition (GI) (OVCAR-3): inactive | growth inhibition (GI) (U-251): inactive | growth inhibition (GI) (NCI-H460): inactive | growth inhibition (GI) (MDA-MB-435): inactive | growth inhibition (GI) (LOX IMVI): inactive | growth inhibition (GI) (BT-549): inactive | growth inhibition (GI) (CAKI-1): inactive | growth inhibition (GI) (SK-MEL-5): inactive | growth inhibition (GI) (SR): inactive | growth inhibition (GI) (SF-539): inactive | growth inhibition (GI) (M14): inactive | growth inhibition (GI) (RXF 393): inactive | growth inhibition (GI) (MCF7): inactive | growth inhibition (GI) (UO-31): inactive | growth inhibition (GI) (KM12): inactive | growth inhibition (GI) (HT-29): inactive | growth inhibition (GI) (CCRF-CEM): inactive | growth inhibition (GI) (RPMI-8226): inactive | growth inhibition (GI) (PC-3): inactive | zone of inhibition at 200 µg/disc (Candida albicans): 8 mm | growth inhibition (GI) (NCI-H522): inactive | growth inhibition (GI) (NCI-H23): inactive | growth inhibition (GI) (SF-295): inactive | growth inhibition (GI) (MOLT-4): inactive | growth inhibition (GI) (ACHN): inactive | IC50 (Dihydrofolate reductase): 1000 nM | growth inhibition (GI) (A549): inactive | growth inhibition (GI) (HOP-92): inactive | growth inhibition (GI) (UACC-257): inactive | growth inhibition (GI) (K562): inactive | growth inhibition (GI) (SW-620): inactive | growth inhibition (GI) (HCT-15): inactive | zone of inhibition at 200 µg/disc (Staphylococcus aureus [1]): 8 mm | growth inhibition (GI) (Hs-578T): inactive | growth inhibition (GI) (OVCAR-8): inactive | growth inhibition (GI) (MDA-MB-231): inactive | zone of inhibition at 200 µg/disc (Escherichia coli): 8 mm | zone of inhibition at 200 µg/disc (Bacillus subtilis [2]): 8 mm | growth inhibition (GI) (MDA-MB-468): inactive | growth inhibition (GI) (A498): inactive | growth inhibition (GI) (Malme-3M): inactive | growth inhibition (GI) (786-0): inactive | growth inhibition (GI) (HCC 2998): inactive | growth inhibition (GI) (HCT-116): inactive | growth inhibition (GI) (SNB-75): inactive | growth inhibition (GI) (COLO 205): inactive | zone of inhibition at 200 µg/disc (Pseudomonas aeruginosa): 8 mm | growth inhibition (GI) (SF-268): inactive | growth inhibition (GI) (NCI-H226): inactive | growth inhibition (GI) (UACC-62): inactive | growth inhibition (GI) (TK-10): inactive | growth inhibition (GI) (OVCAR-5): inactive | growth inhibition (GI) (OVCAR-4): inactive | growth inhibition (GI) (NCI/ADR-RES): inactive | growth inhibition (GI) (SNB-19): inactive
